Values of other authors in patent US20220000787A1, “DELAYED RELEASE PHARMACEUTICAL COMPOSITION OF PREDNISONE AND PREPARATION THEREOF” (PIRAMAL PHARMA LIMITED, priority 2020, published 2022).

## C[C@]12C=CC(=O)C=C1CC[C@@H]1[C@@H]2C(=O)C[C@@]2(C)[C@H]1CC[C@]2(O)C(=O)CO [Prednisone, 17,21-dihydroxypregna-1,4-diene-3,11,20-trione]
alcohol, chloroform, dioxane, methanol
  Solubility in alcohol, chloroform, dioxane, and methanol: slightly soluble
water
  Solubility in water: very slightly soluble
